Data published in US9656990B2, “Cathepsin cysteine protease inhibitors” (Merck Sharp & Dohme Corp., priority 2014, dated 2017).

Columns and labels:
human cathepsin K = human cathepsin K (UniProt P43236, Y175D/V274L, species not given); assay: Cathepsin K Assay; type: biochemical; conditions: IP from dose response curve; Z-Leu-Arg-AMC substrate, pH 5.5; read-out: hrbCat K (IP (nM))
human cathepsin F = target: T1, human cathepsin F (Homo sapiens, UniProt Q9UBX1); assay: Cathepsin F Assay; type: biochemical; conditions: IP from dose response curve; Z-Phe-Arg-AMC substrate, pH 5.5; read-out: hCat F (IP (nM))
T1 sequence (Q9UBX1 271-484): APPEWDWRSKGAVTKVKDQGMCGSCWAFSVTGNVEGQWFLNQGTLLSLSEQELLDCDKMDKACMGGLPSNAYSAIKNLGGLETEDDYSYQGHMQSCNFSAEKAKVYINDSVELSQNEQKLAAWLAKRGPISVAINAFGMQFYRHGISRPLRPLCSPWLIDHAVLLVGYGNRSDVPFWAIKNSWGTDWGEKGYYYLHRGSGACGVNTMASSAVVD
Experimental: Serial dilutions (1/3) from 500 μM down to 0.025 μM of test compounds were prepared in dimethyl sulfoxide (DMSO). Then 0.5 μL of DMSO from each dilution were added to 18.75 μL of assay buffer (MES, 50 mM (pH 5.5); EDTA, 2.5 mM; DTT, 2.5 mM and 10% DMSO) containing human cathepsin F (10 nM) in assay buffer solution. The assay solutions were mixed for 5-10 seconds on a shaker plate and incubated for 15 minutes at room temperature. Z-Phe-Arg-AMC (8 μM) in 6.25 μL of assay buffer was added to the assay solutions. Hydrolysis of the coumarin leaving group (AMC) was followed by spectrofluorometry (Exλ=360 nm; Emλ=460 nm) for 20 minutes. Percent of inhibition were calculated by fitting experimental values to standard mathematical model for dose response curve.

| Compound | IC50 (human cathepsin K) [nM] | IC50 (human cathepsin F) [nM] |
| --- | --- | --- |
| N#CC1(NC(=O)[C@@H]2CCCC[C@H]2c2nn3ccccc3c2-c2ccc(N3CCS(=O)(=O)CC3)cc2)CC1 [Example 21, (1R,2R)-N-(1-cyanocyclopropyl)-2-(3-(4-(1,1-dioxidothiomorpholino)phen-yl)pyrazolo[1,5-a]pyridin-2-yl)cyclohexanecarboxamide] | 9.56 | 6910 |
| Cc1c(-c2ccc(N3CCS(=O)(=O)CC3)cc2)c([C@@H]2CCCC[C@H]2C(=O)N[C@H](C#N)C(C)C)nn1-c1ncccc1F [Example 43, (1R,2R)-N-((S)-1-cyano-2-methylpropyl)-2-(4-(4-(1,1-dioxidothiomorpholino)phen-yl)-1-(3-fluoropyridin-2-yl)-5-methyl-1H-pyrazol-3-yl)cyclohexanecarboxamide] | 12.1 | 4550 |
| CN=S1(=O)CCN(c2ccc(-c3cn(-c4ccc(F)cc4)nc3[C@@H]3CCCC[C@H]3C(=O)NC3(C#N)CC3)cc2)CC1 [Example 130, (1R,2R)-N-(1-cyanocyclopropyl)-2-(1-(4-fluorophenyl)-4-(4-(1-(methylimino)-1-oxidothiomorpholino)phenyl)-1H-pyrazol-3-yl)cyclohexanecarboxamide] | 1.92 | 854 |
| N#CC1(NC(=O)[C@@H]2C[C@@H](F)CC[C@H]2c2nn(-c3ccc(F)cn3)cc2-c2ccc(N3CCS(=O)(=O)CC3)cc2)CC1 [Example 10, (1R,2R,5S)—N-(1-Cyanocyclopropyl)-2-(4-(4-(1,1-dioxidothiomorpholino)phenyl)-1-(5-fluoropyridin-2-yl)-1H-pyrazol-3-yl)-5-fluorocyclohexanecarboxamide] | 0.89 | 1050 |
| N#Cc1cc(Cl)ccc1-n1cc(-c2ccc(N3CCS(=O)(=O)CC3)cc2)c([C@@H]2CCCC[C@H]2C(=O)NC2(C#N)CC2)n1 [Example 105, (1R,2R)-2-(1-(4-chloro-2-cyanophenyl)-4-(4-(1,1-dioxidothiomorpholino)phen-yl)-1H-pyrazol-3-yl)-N-(1-cyanocyclopropyl)cyclohex-anecarboxamide] | 3.23 | 1260 |
| CN=S1(=O)CCN(c2ccc(-c3cn(-c4ccc(F)cn4)nc3[C@@H]3CC(F)(F)CC[C@H]3C(=O)NC(C)C#N)cc2)CC1 (single isomer, unassigned) [Example 24, (1R,2R)-N-((R or S)-1-cyanoethyl)-4,4-difIuoro-2-(1-(5-fluoropyridin-2-yl)-4-(4-(1-(methylimino)-1-oxidothiomorpholino)phenyl)-1H-pyrazol-3-yl)cyclohexanecarboxamide] | 169 |  |
| C[C@@H](C#N)NC(=O)[C@@H]1C[C@@H](F)CC[C@H]1c1nn(-c2ncccc2F)cc1-c1ccc(N2CCS(=O)(=O)CC2)cc1 [Example 12, (1R,2R,5S)—N—((S)-1-Cyanoethyl)-2-(4-(4-(1,1-dioxidothiomorpholino)phenyl)-1-(3-fluoropyridin-2-yl)-1H-pyrazol-3-yl)-5-fluorocyclohexanecarboxamide] | 6.89 |  |
| N#CC1(NC(=O)[C@@H]2CCCC[C@H]2c2nn(-c3ncccn3)cc2-c2ccc(N3CCS(=O)(=O)CC3)cc2)CC1 [Example 160, (1R,2R)-N-(1-cyanocyclopropyl)-2-(4-(4-(1,1-dioxidothiomorpholino)phen-yl)-1-(pyrimidin-2-yl)-1H-pyrazol-3-yl)cyclohexanecarboxamide] | 34.7 |  |
| CN=S1(=O)CCN(c2ccc(-c3cn(-c4ncccc4F)nc3[C@@H]3CC[C@H](F)C[C@H]3C(=O)N[C@@H](C)C#N)cc2)CC1 [Example 54, (1R,2R,5S)-N-((S)-1-cyanoethyl)-5-fluoro-2-(1-(3-fluoropyridin-2-yl)-4-(4-(1-(methylimino)-1-oxidothiomorpholino)phenyl)-1H-pyrazol-3-yl)cyclohexanecarboxamide] | 7.89 |  |
| CC1(C)CC[C@@H](c2nn(-c3ccc(F)cc3)cc2-c2ccc(N3CCS(=O)(=O)CC3)cc2)[C@H](C(=O)NC2(C#N)CC2)C1 (single isomer, unassigned) [Example 126, (1R,2R) or (1S,2S)-N-(1-cyanocyclopropyl)-2-(4-(4-(1,1-dioxidothiomorpholino)phen-yl)-1-(4-fluorophenyl)-1H-pyrazol-3-yl)-5,5-dimethylcyclohexanecarbox-amide] | 116 |  |
| CN=S1(=O)CCN(c2ccc(-c3cn(-c4ncccc4F)nc3[C@@H]3CC(F)(F)CC[C@H]3C(=O)NC3(C#N)CC3)cc2)CC1 [Example 40, (1R,2R)-N-(1-cyanocyclopropyl)-4,4-difluoro-2-(1-(3-fluoropyridin-2-yl)-4-(4-(1-(methylimino)-1-oxidothiomorpholino)phenyl)-1H-pyrazol-3-yl)cyclohexanecarboxamide] | 22 |  |
| N#CC1(NC(=O)[C@@H]2CCC(F)(F)C[C@H]2c2nn(-c3ccc(Cl)cn3)cc2-c2ccc(N3CCS(=O)(=O)CC3)cc2)CC1 [Example 150, (1R,2R)-2-(1-(5-chloropyridin-2-yl)-4-(4-(1,1-dioxidothiomorpholino)phen-yl)-1H-pyrazol-3-yl)-N-(1-cyanocyclopropyl)-4,4-difluorocyclohexanecarbox-amide] | 1.43 |  |
| N#CC1(NC(=O)[C@@H]2CCC(F)(F)C[C@H]2c2nn(-c3ccc(F)cn3)cc2-c2ccc(N3CCS(=O)(=O)CC3)cc2)CC1 [Example 151, (1R,2R)-N-(1-cyanocyclopropyl)-2-(4-(4-(1,1-dioxidothiomorpholino)phen-yl)-1-(5-fluoropyridin-2-yl)-1H-pyrazol-3-yl)-4,4-difluorocyclohexanecarbox-amide] | 2.44 |  |
| N#CC1(NC(=O)[C@@H]2CCC(F)(F)C[C@H]2c2nn(-c3ncccc3F)cc2-c2ccc(N3CCS(=N)(=O)CC3)cc2)CC1 [Example 39, (1R,2R)-N-(1-cyanocyclopropyl)-4,4-difluoro-2-(1-(3-fluoropyridin-2-yl)-4-(4-(1-imino-1-oxidothiomorpholino)phenyl)-1H-pyrazol-3-yl)cyclohexanecarboxamide] | 48.7 |  |
| CC(C)[C@@H](C#N)NC(=O)[C@@H]1C[C@@H](F)CC[C@H]1c1nn(-c2ncccc2F)cc1-c1ccc(N2CCS(=N)(=O)CC2)cc1 [Example 58, (1R,2R,5S)-N-((S)-1-cyano-2-methylpropyl)-5-fluoro-2-(1-(3-fluoropyridin-2-yl)-4-(4-(1-imino-1-oxidothiomorpholino)phenyl)-1H-pyrazol-3-yl)cyclohexanecarboxamide] | 16 |  |
| CN=S1(=O)CCN(c2ccc(-c3cn(-c4ncccc4F)nc3[C@@H]3CC[C@H](F)C[C@H]3C(=O)N[C@H](C#N)C(C)C)cc2)CC1 [Example 55, (1R,2R,5S)-N-((S)-1-cyano-2-methylpropyl)-5-fluoro-2-(1-(3-fluoropyridin-2-yl)-4-(4-(1-(methylimino)-1-oxidothiomorpholino)phenyl)-1H-pyrazol-3-yl)cyclohexanecarboxamide] | 14.3 |  |
| N#CC1(NC(=O)[C@@H]2CCC(F)(F)C[C@H]2c2nn(-c3ccc(C(F)(F)F)cn3)cc2-c2ccc(N3CCS(=O)(=O)CC3)cc2)CC1 [Example 149, (1R,2R)-N-(1-cyanocyclopropyl)-2-(4-(4-(1,1-dioxidothiomorpholino)phen-yl)-1-(5-(trifluoromethyl)pyridin-2-yl)-1H-pyrazol-3-yl)-4,4-difluorocyclohexanecarbox-amide] | 2.58 |  |
| N#CC1(NC(=O)[C@@H]2C[C@@H](F)CC[C@H]2c2nn(-c3ncccc3F)cc2-c2ccc(N3CCS(=N)(=O)CC3)cc2)CC1 [Example 56, (1R,2R,5S)-N-(1-cyanocyclopropyl)-5-fluoro-2-(1-(3-fluoropyridin-2-yl)-4-(4-(1-imino-1-oxidothiomorpholino)phenyl)-1H-pyrazol-3-yl)cyclohexanecarboxamide] | 5.69 |  |
| CN=S1(=O)CCN(c2ccc(-c3cn(-c4ncccc4F)nc3[C@@H]3CC[C@H](F)C[C@H]3C(=O)NC3(C#N)CC3)cc2)CC1 [Example 53, (1R,2R,5S)-N-(1-cyanocyclopropyl)-5-fluoro-2-(1-(3-fluoropyridin-2-yl)-4-(4-(1-(methylimino)-1-oxidothiomorpholino)phenyl)-1H-pyrazol-3-yl)cyclohexanecarboxamide] | 6.54 |  |
| CC(C)[C@@H](C#N)NC(=O)[C@@H]1C[C@@H](F)CC[C@H]1c1nn(-c2ncccc2F)cc1-c1ccc(N2CCS(=O)(=O)CC2)cc1 [Example 49, (1R,2R,5S)-N-((S)-1-cyano-2-methylpropyl)-2-(4-(4-(1,1-dioxidothiomorpholino)phen-yl)-1-(3-fluoropyridin-2-yl)-1H-pyrazol-3-yl)-5-fluorocyclohexanecarboxamide] | 8.35 |  |
| CC(C#N)NC(=O)[C@@H]1CCC(F)(F)C[C@H]1c1nn(-c2ccc(F)cn2)cc1-c1ccc(N2CCS(=N)(=O)CC2)cc1 (single isomer, unassigned) [Example 22, (1R,2R)-N-((R or S)-1-cyanoethyl)-4,4-difluoro-2-(1-(5-fluoropyridin-2-yl)-4-(4-(1-imino-1-oxidothiomorpholino)phenyl)-1H-pyrazol-3-yl)cyclohexanecarboxamide] | 264 |  |
